Assay results from patent US12396458B2, “Fused ring substituted aromatic compound and preparation method therefor, herbicidal composition, and use thereof” (Qingdao Kingagroot Chemical Compound Co., Ltd., priority 2020, dated 2025).

Tests used:
Test in all cases: Weeding effect in post-emergence stage (greenhouse pot test)
Format in all cases: in vivo
Conyza japonica = settings: post-emergence, 3 weeks after application, fresh weight control rate
Method in brief: (§1)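 Greenhouse pot plants sprayed at 2-3 leaf stage (2 weeks after sowing) with compound in acetone/Tween 80 plus 1.5 L/ha methyl oleate EC, at 500, 250, 125, 60, 15, 7.5 g a.i./ha. Fresh-weight growth control scored 3 weeks later on a 0-5 scale (level 5 >85%, level 0 <5%); three replicates averaged.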

Alopecurus japonicus = settings: 3 weeks after application, fresh weight control rate
Method in brief: as §1

Capsella bursa-pastoris = settings: 3 weeks after application, fresh weight control rate
Method in brief: as §1

Beckmannia syzigachne = settings: 3 weeks after application, fresh weight control rate
Method in brief: as §1

Structure (SMILES) | Activity level (growth control rate), Conyza japonica (Conyza japonica; dose 15 g a.i./ha) | Activity level (growth control rate), Alopecurus japonicus (Alopecurus japonicus; dose 15 g a.i./ha) | Activity level (growth control rate), Capsella bursa-pastoris (Capsella bursa-pastoris; dose 15 g a.i./ha) | Activity level (growth control rate), Beckmannia syzigachne (Beckmannia syzigachne; dose 15 g a.i./ha) | Activity level (growth control rate), Conyza japonica (Conyza japonica; dose 125 g a.i./ha) | Activity level (growth control rate), Alopecurus japonicus (Alopecurus japonicus; dose 125 g a.i./ha) | Activity level (growth control rate), Capsella bursa-pastoris (Capsella bursa-pastoris; dose 125 g a.i./ha) | Activity level (growth control rate), Beckmannia syzigachne (Beckmannia syzigachne; dose 125 g a.i./ha)
CCOC(=O)C12ON=C(c3cc(-n4c(=O)cc(C(F)(F)F)n(C)c4=O)c(F)cc3Cl)C1CCC2Br (centres unmarked) [Compound 474] | 4 (Level 4: growth control rate is greater than or equal to 60% and less than 85%) | 4 (Level 4: growth control rate is greater than or equal to 60% and less than 85%) | 5 (Level 5: growth control rate is above 85%) | 4 (Level 4: growth control rate is greater than or equal to 60% and less than 85%) |  |  |  | 
COC(=O)C12CCCC1C(c1nc(-n3c(=O)cc(C(F)(F)F)n(C)c3=O)c(F)cc1Cl)=NO2 (centres unmarked) [Compound 521] | 4 (Level 4: growth control rate is greater than or equal to 60% and less than 85%) | 5 (Level 5: growth control rate is above 85%) | 5 (Level 5: growth control rate is above 85%) | 5 (Level 5: growth control rate is above 85%) |  |  |  | 
CCOCOC(=O)C12CCCC1C(c1cc(-n3c(=O)cc(C(F)(F)F)n(C)c3=O)c(F)cc1Cl)=NO2 (centres unmarked) [Compound 425] | 4 (Level 4: growth control rate is greater than or equal to 60% and less than 85%) | 5 (Level 5: growth control rate is above 85%) | 5 (Level 5: growth control rate is above 85%) | 5 (Level 5: growth control rate is above 85%) |  |  |  | 
COC(=O)C12CCCC1C(c1cc(-n3c(=S)cc(C(F)(F)F)n(C)c3=O)c(F)cc1Cl)=NO2 (centres unmarked) [Compound 498] | 4 (Level 4: growth control rate is greater than or equal to 60% and less than 85%) | 5 (Level 5: growth control rate is above 85%) | 5 (Level 5: growth control rate is above 85%) | 5 (Level 5: growth control rate is above 85%) |  |  |  | 
CC(C)OC(=O)C12CCCC1C(c1cc(-n3c(=O)cc(C(F)(F)F)n(C)c3=O)c(F)cc1Cl)=NO2 (centres unmarked) [Compound 217] | 4 (Level 4: growth control rate is greater than or equal to 60% and less than 85%) | 5 (Level 5: growth control rate is above 85%) | 5 (Level 5: growth control rate is above 85%) | 5 (Level 5: growth control rate is above 85%) |  |  |  | 
CC(C)=NOC(=O)C12CCCC1C(c1cc(-n3c(=O)n(C)c(=S)n(C)c3=O)c(F)cc1Cl)=NO2 (centres unmarked) [Compound 66] | 4 (Level 4: growth control rate is greater than or equal to 60% and less than 85%) | 5 (Level 5: growth control rate is above 85%) | 5 (Level 5: growth control rate is above 85%) | 4 (Level 4: growth control rate is greater than or equal to 60% and less than 85%) |  |  |  | 
Cn1c(C(F)(F)F)cc(=O)n(-c2cc(C3=NOC4(C(=O)OCCF)CCCC34)c(Cl)cc2F)c1=O (centres unmarked) [Compound 231] | 4 (Level 4: growth control rate is greater than or equal to 60% and less than 85%) | 5 (Level 5: growth control rate is above 85%) | 5 (Level 5: growth control rate is above 85%) | 5 (Level 5: growth control rate is above 85%) |  |  |  | 
COC(=O)C12CCCC1C(c1cc(-c3ncc(C(F)(F)F)cc3Cl)c(F)cc1Cl)=NO2 (centres unmarked) [Compound 585] | 4 (Level 4: growth control rate is greater than or equal to 60% and less than 85%) | 5 (Level 5: growth control rate is above 85%) | 5 (Level 5: growth control rate is above 85%) | 5 (Level 5: growth control rate is above 85%) |  |  |  | 
Cn1c(=S)n(C)c(=O)n(-c2cc(C3=NOC4(C(=O)OCc5ccccc5)CCCC34)c(Cl)cc2F)c1=O (centres unmarked) [Compound 51] | 4 (Level 4: growth control rate is greater than or equal to 60% and less than 85%) | 4 (Level 4: growth control rate is greater than or equal to 60% and less than 85%) | 5 (Level 5: growth control rate is above 85%) | 4 (Level 4: growth control rate is greater than or equal to 60% and less than 85%) |  |  |  | 
CCOC(=O)CCC12CCCC1C(c1cc(-n3c(=O)n(C)c(=S)n(C)c3=O)c(F)cc1Cl)=NO2 (centres unmarked) [Compound 530] |  |  |  |  | 4 (Level 4: growth control rate is greater than or equal to 60% and less than 85%) | 5 (Level 5: growth control rate is above 85%) | 5 (Level 5: growth control rate is above 85%) | 4 (Level 4: growth control rate is greater than or equal to 60% and less than 85%)
COC(=O)C12CCCC1C(c1cc(N3C(=O)C4=C(CCCC4)C3=O)c(F)cc1Cl)=NO2 (centres unmarked) [Compound 542] | 4 (Level 4: growth control rate is greater than or equal to 60% and less than 85%) | 5 (Level 5: growth control rate is above 85%) | 4 (Level 4: growth control rate is greater than or equal to 60% and less than 85%) | 4 (Level 4: growth control rate is greater than or equal to 60% and less than 85%) |  |  |  | 
CC(C)=NOC(=O)C12CCCC1C(c1cc(-n3c(=O)cc(C(F)(F)F)n(C)c3=O)c(F)cc1Cl)=NO2 (centres unmarked) [Compound 278] | 4 (Level 4: growth control rate is greater than or equal to 60% and less than 85%) | 5 (Level 5: growth control rate is above 85%) | 5 (Level 5: growth control rate is above 85%) | 5 (Level 5: growth control rate is above 85%) |  |  |  | 
Cn1c(C(F)(F)F)cc(=O)n(-c2cc(C3=NOC4(C(=O)Oc5ccccc5)CCCC34)c(Cl)cc2F)c1=O (centres unmarked) [Compound 426] | 4 (Level 4: growth control rate is greater than or equal to 60% and less than 85%) | 5 (Level 5: growth control rate is above 85%) | 5 (Level 5: growth control rate is above 85%) | 4 (Level 4: growth control rate is greater than or equal to 60% and less than 85%) |  |  |  | 
Cc1cc(C)n(C(=O)C23CCCC2C(c2cc(-n4c(=O)cc(C(F)(F)F)n(C)c4=O)c(F)cc2Cl)=NO3)n1 (centres unmarked) [Compound 333] | 4 (Level 4: growth control rate is greater than or equal to 60% and less than 85%) | 4 (Level 4: growth control rate is greater than or equal to 60% and less than 85%) | 4 (Level 4: growth control rate is greater than or equal to 60% and less than 85%) | 4 (Level 4: growth control rate is greater than or equal to 60% and less than 85%) |  |  |  | 
Cn1c(=S)n(C)c(=O)n(-c2cc(C3=NOC4(C(=O)OCC5CCCO5)CCCC34)c(Cl)cc2F)c1=O (centres unmarked) [Compound 49] | 4 (Level 4: growth control rate is greater than or equal to 60% and less than 85%) | 4 (Level 4: growth control rate is greater than or equal to 60% and less than 85%) | 5 (Level 5: growth control rate is above 85%) | 5 (Level 5: growth control rate is above 85%) |  |  |  | 
CCOC(=O)C12ON=C(c3cc(-n4c(=O)cc(C(F)(F)F)n(C)c4=O)c(F)cc3Cl)C1CCC2CC (centres unmarked) [Compound 477] | 4 (Level 4: growth control rate is greater than or equal to 60% and less than 85%) | 5 (Level 5: growth control rate is above 85%) | 5 (Level 5: growth control rate is above 85%) | 4 (Level 4: growth control rate is greater than or equal to 60% and less than 85%) |  |  |  | 
C=CCOC(=O)C12CCCC1C(c1cc(-n3c(=O)n(C)c(=S)n(C)c3=O)c(F)cc1Cl)=NO2 (centres unmarked) [Compound 10] | 4 (Level 4: growth control rate is greater than or equal to 60% and less than 85%) | 5 (Level 5: growth control rate is above 85%) | 5 (Level 5: growth control rate is above 85%) | 5 (Level 5: growth control rate is above 85%) |  |  |  | 
